This series can be described thus: method code SF-AS, from DOI: 10.1080/02772249909358822.

A word on the logP: it is a log measure of how a compound divides between an organic and an aqueous phase. A lower logP goes with lower lipophilicity. In turn, `COP(=O)(OC)ON=C(C#N)c1ccc(F)cc1` returned a log partition coefficient (logP) of -1.08.
`CCOP(=O)(OCC)ON=C(C#N)c1csc2ccccc12`: the lipophilicity (logP) worked out at 0.56.
Under `CCOP(=S)(OCC)ON=C(C#N)c1csc2ccccc12` stands 2.56.
Take `CC(C)OP(=S)(O/N=C(/C#N)c1ccccc1)OC(C)C`: the logP came to 2.07.
Under `COc1ccc(C(C#N)=NOP(=S)(OC(C)C)OC(C)C)cc1OC` stands 0.47; under `CC(C)OP(=O)(ON=C(C#N)c1ccc(F)cc1)OC(C)C`, -0.43.
Molecule `COC(=O)c1oc2ccccc2c1C(C#N)=NOP(=O)(OC(C)C)OC(C)C` showed a logP of 1.36.
Under `COP(=O)(OC)O/N=C(/C#N)c1ccccc1` stands -1.01; under `CCCOP(=O)(OCCC)ON=C(C#N)c1csc2ccccc12`, 1.67.
The molecule `CC(C)OP(=O)(O/N=C(/C#N)c1ccccc1)OC(C)C` returned a lipophilicity (logP) of 0.06.
Consider `COc1ccc(C(C#N)=NOP(=O)(OC(C)C)OC(C)C)cc1OC`, for which the log partition coefficient (logP) is -0.38.
As for `CC(C)OP(=O)(ON=C(C#N)c1ccc(Cl)cc1)OC(C)C`, the logP was -0.2.
For the molecule `CCCCOP(=O)(OCCCC)ON=C(C#N)c1csc2ccccc12`, the log partition coefficient (logP) was 2.73.
`CCOP(=S)(OCC)ON=C(C#N)c1ccc(F)cc1` registered a logP of 0.35.
Turning to `COP(=O)(OC)ON=C(C#N)c1csc2ccccc12`, the logP was found to be 0.76.
Molecule `CC(C)OP(=O)(ON=C(C#N)c1csc2ccccc12)OC(C)C` yielded a logP of 1.56.
Regarding `COP(=S)(OC)ON=C(C#N)c1csc2ccccc12`, the logP was 1.94.
Regarding `CCOP(=S)(OCC)ON=C(C#N)c1ccc(Cl)cc1`, the log partition coefficient (logP) turned out to be 0.47.
As for `CCOP(=S)(OCC)ON=C(C#N)c1ccc(OC)c(OC)c1`, the figure is -0.19.

The values are drawn from the SangsterLogP compilation.
